# From article PMC3893781, “Triterpenoid Saponins Isolated from Platycodon grandiflorum Inhibit Hepatitis C Virus Replication” (Evidence-based Complementary and Alternative Medicine : eCAM, 2013)
# Where two headings read alike, the source gives them in different places.
# Columns and labels:
# [1] = tested on: HCV replicon cells (genotype 1b); test: In vitro combination studies (CalcuSyn combination index); assay type: cell-based, HCV genotype 1b; details: in combination with PGSM; for Combination Index at EC50 / Combination Index at EC75 / Combination Index at EC90: 72 h, CalcuSyn; for Effect of combination: CI < 1 synergistic
# Protocol: HCV Replicon cells were treated with various concentrations of inhibitors in twofold serial dilutions at a final dimethyl sulfoxide concentration of 1% including titrations of each of the compounds alone as reference controls. […] At three days after treatments, intracellular HCV RNA levels were determined by qRT-PCR. For the Loewe additive model, the experimental data were analyzed by using CalcuSyn (Biosoft, Ferguson, Mo.), a computer program based on the method of Chou and Talalay. A combination index (CI) value for each experimental combination was calculated by a quantitative measure of the degree of drug interaction in terms of additive effect (CI = 1), synergism (CI < 1), or antagonism (CI > 1) for a given endpoint of the effect measurement.
# [2] = tested on: HCV subgenomic replicon (genotype 1b) in Huh7 cells; test: Anti-HCV assay in HCV replicon cells (qRT-PCR); assay type: cell-based, HCV genotype 1b; details: Hepatitis C virus, Huh-7, 72 h, read-out: Inhibition of HCV RNA replication (EC50) CON1 (genotype 1b)
# Protocol: Huh7 cells harboring HCV subgenomic replicon (genotype 1b) were maintained in the presence of 0.25 mg/mL G418 (Invitrogen, Carlsbad, CA). HCV replicon cells were seeded at a density of 1 × 10^4 cells/well in a 96-well plate and incubated at 37°C and 5% CO2. Following 24 h incubation, the culture medium was replaced with a medium containing serially diluted test compounds in the presence of 2% FBS and 1% DMSO. After cells were treated for 72 h with PGMS and triterpenoid saponins, total RNAs were extracted using a CellAmp Direct RNA Prep Kit (Korea Biomedical, Seoul, Korea). The HCV RNA levels were quantified by a quantitative real-time polymerase chain reaction (qRT-PCR) assay using IQ5 real-time PCR detection system (Bio-Rad, Hercules, CA, USA) with HCV-specific primers (5′-GACACTCCACCATAGATCACTC-3′ and 5′-CCC AAC ACT ACT CGG CTA G-3′) and probe (5′-FAM-CCCAAATCTCCAGGCATTGAGCGG-3′ BHQ-1). Results were normalized to glyceraldehyde-3-phosphate dehydrogenase gene (GAPDH). Anti-HCV activity was determined by HCV RNA levels in compound-treated cells as compared to mock-treated cells.
# [3] = tested on: JFH1 viruses (HCV genotype 2a) in Huh7 cells; test: Anti-HCV assay in HCVcc-infected cells (qRT-PCR); assay type: cell-based; details: Hepatitis C virus, Huh-7, 48 h, read-out: Inhibition of HCV RNA replication (EC50) JHF-1 (genotype 2a)
# Protocol: Infectious JFH1 viruses (HCV genotype 2a) were generated as described previously. Huh7 cells were seeded in 24-well plates at a density of 5 × 10^4 cells per well. At 24 h after plating, cells were infected with JFH1 viruses for 2 h. After incubation, the supernatants were replaced with fresh medium. Increasing concentrations of PGMS and its triterpenoid saponins were added in a medium containing 2% DMSO, and cells were incubated at 37°C. At 48 h after infection, total RNAs were extracted and the HCV RNA levels were quantified by qRT-PCR assay. Anti-HCV activity was determined by HCV RNA levels in compound-treated cells as compared to mock-treated cells.
# [4] = molecular target: T1, HCV NS5B polymerase (NS5BCΔ21) (Hepatitis C virus genotype 1b, UniProt Q9WMX2); test: RdRp assay with recombinant HCV NS5B polymerase; assay type: biochemical, HCV genotype 1b
# T1 construct: HCV NS5B polymerase from HCV genotype 1b carrying an N-terminal GST-tag and C-terminal 21-amino acid truncation (NS5BCΔ21); made in house; host or cells: Escherichia coli
# Protocol: Recombinant HCV NS5B polymerase from HCV genotype 1b carrying an N-terminal GST-tag and C-terminal 21-amino acid truncation (NS5BCΔ21) was expressed in Escherichia coli and purified as previously described with some modifications. The colorimetric reverse transcriptase assay kit (Roche Applied Science) was applied to perform RdRp assay. The inhibition of HCV RdRp activity was determined by the amount of double-stranded RNA synthesized by the recombinant NS5BΔC21 in the presence of various test compounds using HCV 3′-UTR as a template.
# HCV NS3/4A protease = molecular target: T2, HCV NS3/4A protease (Hepatitis C virus genotype 1b, UniProt Q9WMX2); test: biochemical; assay type: biochemical; details: FRET peptide substrate; read-out: HCV enzyme (IC50) HCV NS3/4A
# T2 construct: HCV-NS3/4A protease purified from E. coli; host or cells: E. coli
# Protocol: The NS3/4A serine protease assay was performed using a HCV protease assay kit (SensoLyte, AnaSpec, Fremont, CA) according to the manufacturer's instructions. Briefly, HCV-NS3/4A protease purified from E. coli was mixed with the test compound in the assay buffer. After 15 min incubation at room temperature, EDANS/DABCYL-based fluorescence resonance energy transfer (FRET) peptide substrate solution was added and mixed. The FRET substrate was cleaved specifically by HCV NS3/4A protease, thereby liberating the C-terminal peptide-fluorophore fragment from the proximity quenching effect of the dark quencher, resulting in increase of fluorescence. The fluorescence intensity was measured immediately and continuously at excitation/emission at 340 nm and 490 nm.
# [5] = Cell viability assay (MTT); assay type: cell-based; details: human, Huh7 cells, read-out: Cytotoxicity (CC50)
# Protocol: Cell viability was determined by the colorimetric 3-(4,5-dimethylthiazol-2-yl)-2,5-diphenyltetrazolium bromide (MTT) reagent (Promega Corporation) according to the manufacturer's instructions. The absorbance was detected at 570 nm using a Bio-Tek plate reader (Bio-Tek instrument, Weymouth, MA).
# [6] = tested on: Huh7 cells harboring HCV subgenomic replicon (genotype 1b); test: Colony forming assay; assay type: cell-based, HCV genotype 1b; details: 5 U/mL of IFN-α alone, three weeks, G418
# Text: G418 was included in the media to provide selective pressure on HCV replicon cells. After three weeks of treatment, surviving cells were stained with crystal violet [23].
# [7] = tested on: HCV subgenomic replicon cells (genotype 1b); test: Anti-HCV assay for 14 days; assay type: cell-based, HCV genotype 1b
# Protocol: HCV replicon cells were plated at 2 × 10^5 cells per well in a 6-well plate. Each compound was serially diluted in DMEM containing 10% FBS and 0.2% DMSO as reported previously. Culture media were replaced with fresh medium and compounds every 3 days. Cells were harvested at 3, 6, 9, and 14 days and intracellular HCV RNA levels were analyzed by qRT-PCR. The relative copy number of HCV RNA per cell was calculated by comparing RNAs in cells treated with each compound with those RNAs in cells treated with 0.2% DMSO.
# [8] = read-out: HCV enzyme (IC50) HCV NS5B RdRp activity, recombinant NS5B, HCV 3′-UTR template
Compound,Combination Index at EC50 [1],Combination Index at EC75 [1],Combination Index at EC90 [1],Effect of combination [1],EC50 [2] [µg/mL],EC50 [3] [µg/mL],"IC50 [4, 8] [µM]",IC50 (HCV NS3/4A protease) [µM],CC50 [5] [µg/mL],IC50 [4] [µM],Colony formation of HCV replicons [6],Reduction of HCV RNA levels ([7]; IFN-α 10 U/mL) [log10],Reduction of HCV RNA levels ([7]; IFN-α 50 U/mL) [log10],Reduction of HCV RNA levels ([7]; IFN-α 100 U/mL) [log10]
"COC(=O)N[C@H](C(=O)N1CCC[C@H]1c1nc(-c2ccc(-c3ccc(-c4c[nH]c([C@@H]5CCCN5C(=O)[C@@H](NC(=O)OC)C(C)C)n4)cc3)cc2)c[nH]1)C(C)C [BMS790052, Daclatasvir]",0.41,0.42,0.44,Synergistic,–,–,–,–,–,–,–,–,–,–
"CC1OC(OC2C(OC(=O)C34CCC(C)(C)CC3C3=CCC5C6(C)CC(O)C(OC7OC(CO)C(O)C(OC8OC(CO)C(O)C(O)C8O)C7O)C(CO)(CO)C6CCC5(C)C3(C)CC4O)OC(CO)C2O)C(O)C(O)C1OC1OCC(O)C(O)C1O (stereo not drawn) [Deapioplatycodin D2, deapioplatycodin D2]",–,–,–,–,0.89,8,7.97,> 79.7,100,–,–,–,–,–
"C[C@@H]1O[C@@H](O[C@H]2[C@H](OC(=O)[C@]34CCC(C)(C)C[C@H]3C3=CC[C@@H]5[C@@]6(C)C[C@H](O)[C@H](O[C@@H]7O[C@H](CO)[C@@H](O)[C@H](O[C@@H]8O[C@H](CO)[C@@H](O)[C@H](O)[C@H]8O)[C@H]7O)C(CO)(CO)[C@@H]6CC[C@@]5(C)[C@]3(C)C[C@H]4O)OC[C@H](O)[C@@H]2O)[C@H](O)[C@H](O)[C@H]1O[C@@H]1OC[C@@H](O)[C@H](O[C@@H]2OC[C@](O)(CO)[C@H]2O)[C@H]1O [Platycodin D2, platycodin D2]",–,–,–,–,1.05,12,–,> 72.1,25,4.32,–,–,–,–
"CC1OC(OC2C(OC(=O)C34CCC(C)(C)CC3C3=CCC5C6(C)CC(O)C(OC7OC(COC8OC(CO)C(O)C(O)C8O)C(O)C(O)C7O)C(CO)(CO)C6CCC5(C)C3(C)CC4O)OC(CO)C2O)C(O)C(O)C1OC1OCC(O)C(OC2OCC(O)(CO)C2O)C1O (stereo not drawn) [Platycodin D3, platycodin D3]",–,–,–,–,2.33,27,5.77,> 72.1,100,–,–,–,–,–
"C[C@@H]1O[C@@H](O[C@H]2[C@H](OC(=O)[C@]34CCC(C)(C)C[C@H]3C3=CC[C@@H]5[C@@]6(C)C[C@H](O)[C@H](O[C@@H]7O[C@H](CO)[C@@H](O)[C@H](O)[C@H]7O)C(CO)(CO)[C@@H]6CC[C@@]5(C)[C@]3(C)C[C@H]4O)OC[C@H](O)[C@@H]2O)[C@H](O)[C@H](O)[C@H]1O[C@@H]1OC[C@@H](O)[C@H](O[C@@H]2OC[C@](O)(CO)[C@H]2O)[C@H]1O [Platycodin D, platycodin D]",–,–,–,–,0.35,3,–,> 81.6,25,4.08,–,–,–,–
"CC(C)(C)OC(=O)N[C@H]1CCCCC/C=C\[C@@H]2C[C@@]2(C(=O)NS(=O)(=O)C2CC2)NC(=O)[C@@H]2C[C@@H](OC(=O)N3Cc4cccc(F)c4C3)CN2C1=O [R7227, Danoprevir]",0.72,0.71,0.70,Synergistic,–,–,–,–,–,–,–,–,–,–
IFN-α,0.45,0.39,0.34,Synergistic,–,–,–,–,–,–,unable to inhibit colony formation,0.4,0.8,1.5
